Experimental data from US8802597B2, “Herbicidal pyrimidines” (E I du Pont de Nemours and Company, priority 2003, dated 2014).

What was measured:
Format in all cases: in vivo
[1] = test system: barnyardgrass (Echinochloa crus-galli); assay: Test A pre/postemergence
Method in brief: (§1)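 After planting in loam and sand, species received test chemical as preemergence soil spray; postemergence spray went on 2–10 cm plants at 1–2 leaves at the same time. Evaluation: visual injury, ~10 d, 0 no effect to 100 complete control.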

[2] = test system: crabgrass (Digitaria sanguinalis); assay: Test A pre/postemergence
Method in brief: as §1

[3] = test system: giant foxtail (Setaria faberi); assay: Test A pre/postemergence
Method in brief: as §1

[4] = test system: morningglory (Ipomoea spp.); assay: Test A pre/postemergence
Method in brief: as §1

[5] = test system: redroot pigweed (Amaranthus retroflexus); assay: Test A pre/postemergence
Method in brief: as §1

[6] = test system: velvetleaf (Abutilon theophrasti); assay: Test A pre/postemergence
Method in brief: as §1

[7] = test system: barnyardgrass (Echinochloa crus-galli); assay: Test E flooded paddy water application; conditions: Flood, 21 days, scale 0 to 100 (0 no effect, 100 complete control)
Method in brief: (§2)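 Greenhouse pots of Tama silt loam with weeds and rice at 2.0–2.5-leaf stage, flooded to 3 cm; compounds applied directly into paddy water, depth maintained. Visual rating versus untreated controls after 21 days, 0 (no effect) to 100 (complete control); 29.5/26.7 °C, 16-h photoperiod.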

[8] = test system: bearded (brdd.) sprangletop (Leptochloa fusca ssp. fascicularis); assay: Test E flooded paddy water application; conditions: Flood, 21 days, scale 0 to 100 (0 no effect, 100 complete control)
Method in brief: as §2

[9] = test system: ducksalad (Heteranthera limosa); assay: Test E flooded paddy water application; conditions: Flood, 21 days, scale 0 to 100 (0 no effect, 100 complete control)
Method in brief: as §2

[10] = test system: early watergrass (Echinochloa oryzoides); assay: Test E flooded paddy water application; conditions: Flood, 21 days, scale 0 to 100 (0 no effect, 100 complete control)
Method in brief: as §2

[11] = test system: junglerice (Echinochloa colona); assay: Test E flooded paddy water application; conditions: Flood, 21 days, scale 0 to 100 (0 no effect, 100 complete control)
Method in brief: as §2

[12] = test system: late watergrass (Echinochloa oryzicola); assay: Test E flooded paddy water application; conditions: Flood, 21 days, scale 0 to 100 (0 no effect, 100 complete control)
Method in brief: as §2

[13] = test system: purple redstem (Ammannia coccinea); assay: Test E flooded paddy water application; conditions: Flood, 21 days, scale 0 to 100 (0 no effect, 100 complete control)
Method in brief: as §2

[14] = test system: rice flatsedge (Cyperus iria); assay: Test E flooded paddy water application; conditions: Flood, 21 days, scale 0 to 100 (0 no effect, 100 complete control)
Method in brief: as §2

[15] = test system: smallflower umbrella sedge (Cyperus difformis); assay: Test E flooded paddy water application; conditions: Flood, 21 days, scale 0 to 100 (0 no effect, 100 complete control)
Method in brief: as §2

[16] = test system: transplanted rice seedlings (Oryza sativa cv. ‘Japonica-M202’); assay: Test E flooded paddy water application; conditions: Flood, 21 days, scale 0 to 100 (0 no effect, 100 complete control)
Method in brief: as §2

[17] = test system: water seeded rice seedlings (Oryza sativa cv. ‘Japonica-M202’); assay: Test E flooded paddy water application; conditions: Flood, 21 days, scale 0 to 100 (0 no effect, 100 complete control)
Method in brief: as §2

[18] = Postemergence, 125 g ai/ha, 0 to 100 scale (0 no effect, 100 complete control)
[19] = Postemergence, 500 g ai/ha, 0 to 100 scale (0 no effect, 100 complete control)
[20] = Preemergence, 125 g ai/ha, 0 to 100 scale where 0 is no effect and 100 is complete control, approximately ten days
[21] = Preemergence, 500 g ai/ha, 0 to 100 scale where 0 is no effect and 100 is complete control, approximately ten days

CNc1nc(-c2ccc(Cl)cc2)nc(C(=O)OC)c1Cl [Compound 111]
Plant response rating, Barnyardgrass [1, 18]: 0
Plant response rating, Barnyardgrass [1, 19]: 10
Plant response rating, Barnyardgrass [1, 20]: 0
Plant response rating, Barnyardgrass [1, 21]: 0
Plant response rating, Crabgrass [2, 18]: 5
Plant response rating, Crabgrass [2, 19]: 30
Plant response rating, Crabgrass [2, 20]: 0
Plant response rating, Crabgrass [2, 21]: 0
Plant response rating, Foxtail, Giant [3, 18]: 0
Plant response rating, Foxtail, Giant [3, 19]: 0
Plant response rating, Foxtail, Giant [3, 20]: 0
Plant response rating, Foxtail, Giant [3, 21]: 0
Plant response rating, Morningglory [4, 18]: 20
Plant response rating, Morningglory [4, 19]: 50
Plant response rating, Morningglory [4, 20]: 0
Plant response rating, Morningglory [4, 21]: 0
Plant response rating, Pigweed [5, 18]: 55
Plant response rating, Pigweed [5, 19]: 85
Plant response rating, Pigweed [5, 20]: 0
Plant response rating, Pigweed [5, 21]: 0
Plant response rating, Velvetleaf [6, 18]: 75
Plant response rating, Velvetleaf [6, 19]: 85
Plant response rating, Velvetleaf [6, 20]: 0
Plant response rating, Velvetleaf [6, 21]: 0
Barnyardgrass plant response rating ([7]; 32 g ai/ha): 0
Barnyardgrass plant response rating ([7]; 64 g ai/ha): 0
Barnyardgrass plant response rating ([7]; 125 g ai/ha): 0
Barnyardgrass plant response rating ([7]; 250 g ai/ha): 0
Plant response rating, Barnyardgrass ([7]; 16 g ai/ha): 0
Sprangletop, Brdd. plant response rating ([8]; 32 g ai/ha): 0
Sprangletop, Brdd. plant response rating ([8]; 64 g ai/ha): 0
Sprangletop, Brdd. plant response rating ([8]; 125 g ai/ha): 0
Sprangletop, Brdd. plant response rating ([8]; 250 g ai/ha): 0
Plant response rating, Sprangletop, Brdd. ([8]; 16 g ai/ha): 0
Ducksalad plant response rating ([9]; 32 g ai/ha): 0
Ducksalad plant response rating ([9]; 64 g ai/ha): 85
Ducksalad plant response rating ([9]; 125 g ai/ha): 100
Ducksalad plant response rating ([9]; 250 g ai/ha): 100
Plant response rating, Ducksalad ([9]; 16 g ai/ha): 0
Watergrass, Early plant response rating ([10]; 32 g ai/ha): 0
Watergrass, Early plant response rating ([10]; 64 g ai/ha): 0
Watergrass, Early plant response rating ([10]; 125 g ai/ha): 0
Watergrass, Early plant response rating ([10]; 250 g ai/ha): 0
Plant response rating, Watergrass, Early ([10]; 16 g ai/ha): 0
Junglerice plant response rating ([11]; 32 g ai/ha): 0
Junglerice plant response rating ([11]; 64 g ai/ha): 0
Junglerice plant response rating ([11]; 125 g ai/ha): 0
Junglerice plant response rating ([11]; 250 g ai/ha): 0
Plant response rating, Junglerice ([11]; 16 g ai/ha): 0
Watergrass, Late plant response rating ([12]; 32 g ai/ha): 0
Watergrass, Late plant response rating ([12]; 64 g ai/ha): 0
Watergrass, Late plant response rating ([12]; 125 g ai/ha): 0
Watergrass, Late plant response rating ([12]; 250 g ai/ha): 0
Plant response rating, Watergrass, Late ([12]; 16 g ai/ha): 0
Redstem plant response rating ([13]; 32 g ai/ha): 20
Redstem plant response rating ([13]; 64 g ai/ha): 30
Redstem plant response rating ([13]; 125 g ai/ha): 30
Redstem plant response rating ([13]; 250 g ai/ha): 75
Plant response rating, Redstem ([13]; 16 g ai/ha): 0
Flatsedge, Rice plant response rating ([14]; 32 g ai/ha): 0
Flatsedge, Rice plant response rating ([14]; 64 g ai/ha): 0
Flatsedge, Rice plant response rating ([14]; 125 g ai/ha): 0
Flatsedge, Rice plant response rating ([14]; 250 g ai/ha): 0
Plant response rating, Flatsedge, Rice ([14]; 16 g ai/ha): 0
Sedge, Umbrella plant response rating ([15]; 32 g ai/ha): 0
Sedge, Umbrella plant response rating ([15]; 64 g ai/ha): 0
Sedge, Umbrella plant response rating ([15]; 125 g ai/ha): 0
Sedge, Umbrella plant response rating ([15]; 250 g ai/ha): 75
Plant response rating, Sedge, Umbrella ([15]; 16 g ai/ha): 0
Rice, Transplanted plant response rating ([16]; 32 g ai/ha): 0
Rice, Transplanted plant response rating ([16]; 64 g ai/ha): 0
Rice, Transplanted plant response rating ([16]; 125 g ai/ha): 0
Rice, Transplanted plant response rating ([16]; 250 g ai/ha): 0
Plant response rating, Rice, Transplanted ([16]; 16 g ai/ha): 0
Rice, Water Seeded plant response rating ([17]; 32 g ai/ha): 0
Rice, Water Seeded plant response rating ([17]; 64 g ai/ha): 0
Rice, Water Seeded plant response rating ([17]; 125 g ai/ha): 0
Rice, Water Seeded plant response rating ([17]; 250 g ai/ha): 0
Plant response rating, Rice, Water Seeded ([17]; 16 g ai/ha): 0

CCOC(=O)c1nc(-c2ccc(C)cc2)nc(N)c1Cl [Compound 62]
Plant response rating, Barnyardgrass [1, 18]: 15
Plant response rating, Barnyardgrass [1, 19]: 80
Plant response rating, Barnyardgrass [1, 20]: 0
Plant response rating, Barnyardgrass [1, 21]: 45
Plant response rating, Crabgrass [2, 18]: 0
Plant response rating, Crabgrass [2, 19]: 35
Plant response rating, Crabgrass [2, 20]: 0
Plant response rating, Crabgrass [2, 21]: 60
Plant response rating, Foxtail, Giant [3, 18]: 0
Plant response rating, Foxtail, Giant [3, 19]: 80
Plant response rating, Foxtail, Giant [3, 20]: 0
Plant response rating, Foxtail, Giant [3, 21]: 0
Plant response rating, Morningglory [4, 18]: 10
Plant response rating, Morningglory [4, 19]: 35
Plant response rating, Morningglory [4, 20]: 0
Plant response rating, Morningglory [4, 21]: 35
Plant response rating, Pigweed [5, 18]: 30
Plant response rating, Pigweed [5, 19]: 60
Plant response rating, Pigweed [5, 20]: 0
Plant response rating, Pigweed [5, 21]: 75
Plant response rating, Velvetleaf [6, 18]: 90
Plant response rating, Velvetleaf [6, 19]: 95
Plant response rating, Velvetleaf [6, 20]: 0
Plant response rating, Velvetleaf [6, 21]: 75
Barnyardgrass plant response rating ([7]; 32 g ai/ha): 0
Barnyardgrass plant response rating ([7]; 64 g ai/ha): 0
Barnyardgrass plant response rating ([7]; 125 g ai/ha): 0
Barnyardgrass plant response rating ([7]; 250 g ai/ha): 50
Barnyardgrass plant response rating ([7]; 500 g ai/ha): 100
Sprangletop, Brdd. plant response rating ([8]; 32 g ai/ha): 0
Sprangletop, Brdd. plant response rating ([8]; 64 g ai/ha): 0
Sprangletop, Brdd. plant response rating ([8]; 125 g ai/ha): 30
Sprangletop, Brdd. plant response rating ([8]; 250 g ai/ha): 45
Sprangletop, Brdd. plant response rating ([8]; 500 g ai/ha): 75
Ducksalad plant response rating ([9]; 32 g ai/ha): 100
Ducksalad plant response rating ([9]; 64 g ai/ha): 100
Ducksalad plant response rating ([9]; 125 g ai/ha): 100
Ducksalad plant response rating ([9]; 250 g ai/ha): 100
Ducksalad plant response rating ([9]; 500 g ai/ha): 100
Watergrass, Early plant response rating ([10]; 32 g ai/ha): 0
Watergrass, Early plant response rating ([10]; 64 g ai/ha): 0
Watergrass, Early plant response rating ([10]; 125 g ai/ha): 0
Watergrass, Early plant response rating ([10]; 250 g ai/ha): 0
Watergrass, Early plant response rating ([10]; 500 g ai/ha): 0
Junglerice plant response rating ([11]; 32 g ai/ha): 20
Junglerice plant response rating ([11]; 64 g ai/ha): 30
Junglerice plant response rating ([11]; 125 g ai/ha): 40
Junglerice plant response rating ([11]; 250 g ai/ha): 50
Junglerice plant response rating ([11]; 500 g ai/ha): 65
Watergrass, Late plant response rating ([12]; 32 g ai/ha): 0
Watergrass, Late plant response rating ([12]; 64 g ai/ha): 20
Watergrass, Late plant response rating ([12]; 125 g ai/ha): 20
Watergrass, Late plant response rating ([12]; 250 g ai/ha): 20
Watergrass, Late plant response rating ([12]; 500 g ai/ha): 20
Redstem plant response rating ([13]; 32 g ai/ha): 75
Redstem plant response rating ([13]; 64 g ai/ha): 85
Redstem plant response rating ([13]; 125 g ai/ha): 85
Redstem plant response rating ([13]; 250 g ai/ha): 95
Redstem plant response rating ([13]; 500 g ai/ha): 100
Flatsedge, Rice plant response rating ([14]; 32 g ai/ha): 0
Flatsedge, Rice plant response rating ([14]; 64 g ai/ha): 0
Flatsedge, Rice plant response rating ([14]; 125 g ai/ha): 45
Flatsedge, Rice plant response rating ([14]; 250 g ai/ha): 65
Flatsedge, Rice plant response rating ([14]; 500 g ai/ha): 100
Sedge, Umbrella plant response rating ([15]; 32 g ai/ha): 70
Sedge, Umbrella plant response rating ([15]; 64 g ai/ha): 80
Sedge, Umbrella plant response rating ([15]; 125 g ai/ha): 95
Sedge, Umbrella plant response rating ([15]; 250 g ai/ha): 100
Sedge, Umbrella plant response rating ([15]; 500 g ai/ha): 100
Rice, Transplanted plant response rating ([16]; 32 g ai/ha): 0
Rice, Transplanted plant response rating ([16]; 64 g ai/ha): 0
Rice, Transplanted plant response rating ([16]; 125 g ai/ha): 0
Rice, Transplanted plant response rating ([16]; 250 g ai/ha): 0
Rice, Transplanted plant response rating ([16]; 500 g ai/ha): 30
Rice, Water Seeded plant response rating ([17]; 32 g ai/ha): 0
Rice, Water Seeded plant response rating ([17]; 64 g ai/ha): 0
Rice, Water Seeded plant response rating ([17]; 125 g ai/ha): 0
Rice, Water Seeded plant response rating ([17]; 250 g ai/ha): 10
Rice, Water Seeded plant response rating ([17]; 500 g ai/ha): 60
